Molecules are shown by their SMILES. Counter-ions that a name gives are not always drawn. Like-named read-outs stand apart in the source and are kept apart here.

The test system of one assay is HaCaT keratinocytes. As to the kind of experiment: Wound scratch assay. It counts as cell-based, human. The note with it: 1 µM and 10 µM, after 24 h, p < 0.05 vs untreated control. As for the experimental part:
HaCaT keratinocytes were provided by Prof. Dr. Norbert E. Fusenig (DKFZ, Heidelberg, Germany) and cultivated in a DMEM medium, supplemented with FCS (10%), penicillin/streptomycin solution (1%), and non-essential amino acids (1%) (PAA, Pasching, Austria). HaCaT keratinocytes were cultivated at 37 °C, 5% CO2.
The evaluation of 4 different MAAs (compounds 1, 2, 4, and 8) on the migration of HaCaT cells was determined as described by Balekar et al.. HaCaT cells were plated into a 12-well plate at a concentration of 1 × 10^5 cells containing Dulbecco’s modified Eagle’s medium culture medium (DMEM) supplemented with 10% fetal calf serum (FCS) and incubated at 37 °C in a humidified 5% CO2 atmosphere until confluence has been reached. After attachment of the cells to the plate, medium was removed and the adherent cell layer was scratched with a sterile pipette tip. Cellular debris was removed by washing off with PBS (2 × 1 mL). Subsequently, the cells were treated with DMEM supplemented with 10% FCS containing the individual MAA test compounds at the concentrations of (10 µM to 1 µM). Control cells received only fresh DMEM +10% FCS, cells used as the positive control were treated with fresh DMEM + 20% FCS. Following, the cell cultures were incubated at […] in a humidified 5% CO2 atmosphere. Finally, the area of each scratch was determined by quantitative imaging at time 0 (just after scratching cell monolayers) and after 24 h treatment with the compounds (Leica DFC300, Wetzlar Germany; 40× magnification). The captured images were then analyzed using Image J software.
The migration rate can be expressed as the percentage of area reduction or wound closure:(2) Wound closure %=100 [Area (t0)−Area( t24)/Area (t0)]
Statistical analysis: The data were analyzed in three independent experiments and were expressed as mean ± SEM. One-way ANOVA, followed by an unpaired t-test to compare control group and treated group was performed. P-value of ≤ 0.05 was considered as statistically significant.

Assay [1] concerns the target collagenase type V. Description: Collagenase inhibition assay (spectrofluorometric). It is filed as biochemical. The note with it: for IC50: collagenase type V, MMP-2 fluorogenic substrate, 1% DMSO, 95% confidence interval in brackets, read-out: Collagenase Inhibition IC50 µM (CI 95 ±). As for the experimental part:
The assay was carried out according to a previously published protocol by Hartmann et al.. All required reagents for the assay were purchased from Sigma Aldrich. Both enzyme (collagenase type V; C-9263) and substrate (SCP0192 MMP-2 substrate, Sigma Aldrich) were dissolved in the reagent buffer (Tris–HCl; 10 mM pH 7.3) and diluted from stock solutions to 100 μg/mL (initial) enzyme concentration and 55.55 μg/mL (initial) substrate concentration prior to use. Test samples and standard inhibitor phosphoramidon disodium salt used as positive control were dissolved in H2O/DMSO, always maintaining a final DMSO concentration of 1% in each well. The final reaction volume of 100 μL was composed of 25 μL buffer solution, and 25 μL sample/positive controls which were added first followed by 25 μL enzyme. This mixture was incubated for 10 min at 37 °C. Finally, 25 µL of substrate were added to initiate the readout reaction. The substrate which carries a fluorogenic residue (7-methoxycoumarin-4-yl acetic acid) is continuously dissipated by the enzyme collagenase. Measurements are taken after 30 min at an excitation wavelength of λ = 320 nm and λ = 400 nm emission wavelengths in a 96-well microplate format using an Infinite F 200 pro microplate reader equipped with filter-based technology (Tecan, Männedorf, Switzerland). An untreated control group containing 1% DMSO without sample was set to 100% enzyme activity. Blank wells without enzyme were measured accordingly and subtracted from the fluorescent units of each well. Two positive controls were used. First, the well-established phosphoramidon disodium salt and second, to include natural product based inhibitors, rutin and EGCG were used. Measurements were performed in triplicates using 96 well plates, and each substance was measured in three independent experiments. […] IC50 values were calculated by fitting data (log (Inhibitor) vs. response–variable slope) using GraphPad Prism (GraphPad Software, San Diego, CA, USA).
Statistics: The data were analyzed at least in three independent experiments and were expressed as mean ± SEM. A Shapiro Wilk normality test was performed to confirm the Gaussian distribution of the data. One-way ANOVA, followed by a Dunett’s multiple comparison test in GraphpadPrism 5 were performed to clarify statistical significance. p-Value of ≤ 0.05 was considered statistically significant.

Assay [2] relates to pentosidine-like AGEs. As to the kind of experiment: Inhibition of advanced glycation end products (AGEs) formation, BSA/D-ribose fluorescence assay. It is filed as biochemical. The settings on record: for IC50: BSA 10 mg/mL, D-ribose 0.5 M, 37 °C, 24 h. How it is done: The anti-AGE assay was carried out following the methodology previously reported by Séro et al.. Briefly, the samples (1 µM to 3 mM) were incubated with D-ribose (0.5 M) and bovine serum albumin (BSA, 10 mg/mL) in a Na-phosphate buffer (50 mM pH 7.4); the solutions were incubated in black microtiter plates (96 wells) at 37 °C for 24 h in a closed system before AGE fluorescence measurement. Both vesperlysines-like (λexc370 nm; λem440 nm) and pentosidine-like (λexc335 nm; λem385 nm) AGE fluorescence were measured using a microplate spectrofluorometer Infinite M200 (Tecan, Lyon, France). To avoid quenching phenomena, the fluorescence resulting from the incubation in the same conditions of BSA (10 mg/mL) and the tested extract (1 µM to 3 mM) was subtracted from each measurement. The negative control, i.e., 100% inhibition of AGEs formation, consisted of wells with only BSA. A control, i.e., no inhibition of AGEs formation, consisted of wells with BSA (10 mg/mL) and D-ribose (0.5 M). The final volume assay was 100 µL. The percentage of AGE formation was calculated as follows for each extract concentration: AGEs (%) = (fluorescence intensity [sample]−fluorescence [blank of sample]/fluorescence intensity [control]−fluorescence [blank of control]) × 100.
Dose-effect curves were best fitted with a sigmoidal dose-response equation [four parameters logistic model: bottom and top plateaus, the EC50, and the slope factor (Hill’s slope)] using Sigma Plot 14.0 software, which enabled calculation of the IC50 values. The acceptance criteria were established by the correlation coefficient (r²) > 0.97. Results were compared with those of reference products, aminoguanidine and rutin.

Assay [3] concerns hen egg white lysozyme (HEWL). The note with it: read-out: Inhibition of glycation-dependent cross-linking of HEWL, IC50; literature finding, reference not given; cited from earlier work.
A further assay concerns the target collagenase. The note with it: cited from earlier work.
The test system of assay [4] is pentosidine-like AGEs. The settings on record: cited from earlier work.
The target of assay [5] is collagenase type V. Also on record: method as in Hartmann et al. [18]. The note with it: collagenase results previously published; 95% confidence interval in brackets; ref Hartmann et al. [18]; read-out: Collagenase Inhibition IC50 µM (CI 95 ±); cited from earlier work.
Assay [6] concerns UV-A induced MMPs such as MMP-1 and elastase. Also on record: method as in Ryu et al. [20]. The settings on record: concentrations at 40 µM; ref Ryu et al. [20]; cited from earlier work.
Setting [7] is: read-out: Collagenase inhibition IC50.
Where [8] appears, read: concentration range 1 to 350 µM.

Take `COC1=C(N[C@H](C(=O)O)[C@@H](C)O)C[C@](O)(CO)CC1=N[C@@H](CCC(N)=O)C(=O)O` [Compound 8, bostrychine-B]: the “Migration / wound closure in scratch assay (words)” value (from here on “Migration / wound closure”) is “significant migration and narrowing of the scratch area” in the assay on HaCaT keratinocytes; “slightly higher wound closure ability” with HaCaT keratinocytes (listed as bostrychine B). Further, the IC50 (as a rule, the concentration at which inhibition is half-maximal) at collagenase type V [1] turned out to be 104 µM.
As for `COC1=C(NCCO)C[C@](O)(CO)CC1=NCC(=O)O` [Compound 6, asterina-330], the IC50 at collagenase type V [1] came to 70.9 µM; in the assay on pentosidine-like AGEs [2], 125 µM.
The like results for `COC1=C(NC[C@@H](C)O)C[C@](O)(CO)CC1=NCC(=O)O` [Compound 5, aplysiapalythine A] were, in that order, 80.7 µM and 400 µM.
The like results for `CNC1=C(OC)C(=N[C@H](C(=O)O)[C@@H](C)O)C[C@](O)(CO)C1` [Compound 3, mycosporine-methylamine-threonine] were, in that order, 250 µM and 150 µM.
For `COC1=C(NCC(=O)O)CC(O)(CO)CC1=NCC(=O)O` (stereo not drawn) [mycosporine-2-glycine], the IC50 in assay [3] is 1.61 mM.
As to `COC1=C(NCCC(=O)O)C[C@@](O)(CO)CC1=N[C@H](C(=O)O)[C@@H](C)O` [Compound 12, bostrychine-F], the half-inhibitory concentration (IC50) on collagenase type V [1] was found to be 90 µM; in the assay on pentosidine-like AGEs [2], 200 µM.
Consider `COC1=C(NC[C@@H](C)O)C[C@@](O)(CO)CC1=N[C@@H](CCC(=O)O)C(=O)O` [Compound 11, bostrychine-E], for which the results for the IC50 at collagenase type V [1] and with pentosidine-like AGEs [2] were 163 µM and 150 µM, respectively.
As to `COC1=C(NCC(=O)O)CC(O)(CO)CC1=N` (stereo not drawn) [palythine], the “Anti-AGEs activity” value in the assay with pentosidine-like AGEs [2] (concentration range 1 µM to 3 mM) is listed as “weakest effect”.
On to `OC[C@H]1O[C@@H](Oc2cc(O)cc(/C=C/c3ccc(O)cc3)c2)[C@H](O)[C@@H](O)[C@@H]1O` [E-piceid], for which the half-maximal inhibitory concentration (IC50) on collagenase (setting [7]) is 259 µM.
For the compound `COC1=C(NCC(C)O)C[C@](O)(CO)CC1=NCC(=O)O` (stereo partly drawn) [aplysiapalythine A], in the assay with collagenase type V [1] (setting [8]), the “Collagenase inhibition” value is on record as “good inhibition”.
Turning to `O=C1c2c(O)cc(O)cc2OC(c2ccc(O)c(O)c2)C1O` (stereo not drawn) [taxifolin], the IC50 on collagenase (setting [7]) is 193 µM.
Regarding `O=c1c(O)c(-c2ccc(O)c(O)c2)oc2cc(O)cc(O)c12` [quercetin], in the assay with pentosidine-like AGEs [4], the “AGEs inhibition” value was “strong AGEs inhibitor”.
As to `COC1=C(NCC(=O)O)CC(O)(CO)CC1=NCCO` (stereo not drawn) [asterina-330], in the assay with collagenase type V [1] (setting [8]), the “Collagenase inhibition” value is listed as “good inhibition”.
On to `COC1=C(N[C@H](C(=O)O)[C@@H](C)O)C[C@](O)(CO)CC1=NCC(=O)O` [Compound 2, porphyra-334], for which, in the assay on HaCaT keratinocytes, the “Migration / wound closure” value was “significant migration and narrowing of the scratch area”. Further, half-maximal inhibition in the assay on pentosidine-like AGEs [2] (IC50) was put at 90 µM. On collagenase type V [5], the IC50 is 106 µM. Besides, in assay [6], the “Inhibition of UV-A induced MMPs such as MMP-1 and elastase” value is on record as “concentration-dependent inhibition”; the “Procollagen production” value is given as “increase in procollagen production”.
In the assay with pentosidine-like AGEs [2], `N=C(N)NN` [Aminoguanidine, reference compound] displayed an IC50 of 1400 µM.
`C[C@@H]1O[C@@H](OC[C@H]2O[C@@H](Oc3c(-c4ccc(O)c(O)c4)oc4cc(O)cc(O)c4c3=O)[C@H](O)[C@@H](O)[C@@H]2O)[C@H](O)[C@H](O)[C@H]1O` [Rutin, reference compound] showed a Collagenase inhibition in the assay on collagenase type V [1] (at 100 µM, 1% DMSO control group set to 100% enzyme activity) of 100 µM -> 52% Inhibition *. For the same compound, the IC50 in the assay with pentosidine-like AGEs [2] amounted to 85 µM.
Take `COC1=C(N[C@@H](C)C(=O)O)C[C@](O)(CO)CC1=NCC(=O)O` [Compound 4, mycosporine-alanine-glycine]: in the assay on HaCaT keratinocytes, the “Migration / wound closure” value was “significant migration and narrowing of the scratch area”. In addition, the values for the half-maximal inhibitory concentration (IC50) on collagenase type V [1] and in the assay on pentosidine-like AGEs [2] were 158 µM and 75 µM, respectively.
Take `COC1=C(N[C@@H](CO)C(=O)O)C[C@](O)(CO)CC1=NCC(=O)O` [Compound 1, Shinorine]: the “Migration / wound closure” value in the assay on HaCaT keratinocytes was “significant migration and narrowing of the scratch area”. Moreover, the values for the 50% inhibitory concentration (IC50) in the assay with pentosidine-like AGEs [2] and at collagenase type V [5] were 103 µM and 104 µM, respectively.
For the compound `O=C1c2c(O)cc(O)cc2O[C@H](c2ccc(O)c(OC3O[C@H](CO)[C@@H](O)[C@H](O)[C@H]3O)c2)[C@H]1O` (stereo partly drawn) [taxifolin 3′-O-glucopyranoside], the IC50 at collagenase (setting [7]) is 141 µM.
For `COC1=C(NCC(=O)O)C[C@@](O)(CO)CC1=O` [mycosporine-glycine], the “Collagenase inhibition” value in the assay with collagenase type V [1] (setting [8]) was “very pronounced inhibition”.
On to `O=C(O[C@@H]1Cc2c(O)cc(O)cc2O[C@@H]1c1cc(O)c(O)c(O)c1)c1cc(O)c(O)c(O)c1` [Epigallocatechingalleate, reference compound], for which the half-maximal inhibitory concentration (IC50) at collagenase (used as positive control in many publications, read-out: Collagenase inhibition IC50 (published values)) was ~220 µM; at collagenase type V [1] it was 46.6 µM.
For `OC[C@H]1O[C@@H](Oc2cc(O)cc(/C=C/c3ccc(O)c(O)c3)c2)[C@H](O)[C@@H](O)[C@@H]1O` [E-astringin], the IC50 on collagenase (setting [7]) was 125 µM.
For `COC1=C(N[C@H](C(=O)O)[C@@H](C)O)C[C@](O)(CO)CC1=N[C@@H](CCC(=O)O)C(=O)O` [Compound 10, bostrychine-D], the half-inhibitory concentration (IC50) turned out to be 118 µM at collagenase type V [1] and 85 µM in the assay with pentosidine-like AGEs [2].
In the case of `CC(C)C[C@H](NP(=O)(O)O[C@@H]1O[C@@H](C)[C@H](O)[C@@H](O)[C@H]1O)C(=O)N[C@@H](Cc1c[nH]c2ccccc12)C(=O)O` [Phosphoramidon, phosphoramidon disodium salt, reference compound], the IC50 on collagenase type V [1] amounted to 1.9 µM.

These data come from paper PMC7024213, “Absolute Configuration of Mycosporine-Like Amino Acids, Their Wound Healing Properties and In Vitro Anti-Aging Effects” (Marine Drugs, 2019).
